Measurements from US10052304B2, “Compositions and methods for cancer therapy” (UNIVERSITY OF IOWA RESEARCH FOUNDATION, priority 2015, dated 2018).
“And” between values parts separate entries of the source, which are not always exact repeats. Equal entries are not always repeated. “Also recorded” adds a separate entry of the source.

Tests used:
U87 cells = assay: Clonogenic survival assay, U87 GBM cells; assay type: cell-based, human
Protocol: (§1) Treatment conditions for individual experiments are as described in the figure legends and summarized in the Supplemental Experimental Procedures.
(§2) 1-2×10^5 cells were plated in 60 mm cell culture dishes and grown in their respective media for 48 h before exposed to experimental conditions. […] For AdGPx1 experiments, cells were supplemented with 50 nM sodium selenite following transduction and throughout clonogenic growth. […] After treatment, cells were washed with PBS and clonogenic assay was completed in their respective media. Briefly, floating and attached cells were collected and total cells per plate were counted. An experimentally derived number of cells were plated into each well of a 6-well cell culture plate in their respective media. For HEL92.1.7 suspension cells, cells were seeded in a top layer of 0.4% (w/v) agarose to allow for quantifiable colony formation. […] Normalized survival fractions were calculated by comparing plating efficiencies of each treatment group against the control group within a given experiment.

OPM2 = assay: Colony formation on soft agar, OPM2 myeloma cells; assay type: cell-based, human; conditions: 1 h treatment, colonies after 10-14 days
Text: A two-layer agar system was used, and colonies were visualized after 10-14 days.

HBEpC = conditions: 1 h ascorbate + 5 μM carboplatin + 2 Gy IR
Protocol: (§3) After treatment, cells were washed with PBS and clonogenic assay was completed in their respective media as previously described (Fath et al., 2011). Treatment conditions for individual experiments are as described in the figure legends and summarized in the Supplemental Experimental Procedures.
as §2, with “formation. After sufficient time (7-12 days, cell type-dependent), cells were fixed in 70% ethanol and stained with a Brilliant Blue methanol solution.” for “formation.”

NHA = conditions: 1 h ascorbate + 25 μM temozolomide + 2 Gy IR
Protocol: as §3
as §2, with “formation. After sufficient time (7-12 days, cell type-dependent), cells were fixed in 70% ethanol and stained with a Brilliant Blue methanol solution.” for “formation.”

U87 xenografts = assay: GBM (U87) flank xenograft model; assay type: in vivo, mice
Protocol: Female 4-6 week old female athymic-nu/nu mice were purchased from Envigo (previously Harlan Laboratories) and housed in the Animal Care Facility at the University of Iowa (Iowa City, Iowa), and all procedures were approved by the University of Iowa Institutional Animal Care and Use Committee and conformed to NIH guidelines. 1×10^6 H292 or U87 cells were injected subcutaneously into the right rear flank and mice were euthanized and sacrificed when tumor length exceeded 1.5 cm in any dimension.
1×10^6 H292 or U87 cells were injected subcutaneously into the right rear flank. […] Tumors were measured every other day with Vernier calipers (volume=(length×width×(width/2)) and mice were euthanized and sacrificed when tumor length exceeded 1.5 cm in any dimension.

H1299 cells = assay: Clonogenic survival assay, H1299 NSCLC cells; assay type: cell-based, human
Protocol: as §1, §2

terminal cancer patients = conditions: high doses of ascorbate given both IV and orally; cited from earlier work
[1] = Ascorbate quantification in mouse plasma, tumor and CSF after IP ascorbate; assay type: in vivo, mice
Protocol: Tumor xenografts were excised and flash frozen in liquid nitrogen until analysis. Mouse whole blood was collected by cardiac puncture, and plasma was collected after the sample was centrifuged at 500 g for 10 min and frozen until analysis. For patient samples, whole blood was collected from clinical trial patients (NaHeparin 75 USP units, BD Vacutainer® green top blood collection tube, 4 mL), and plasma was collected after centrifugation at 500 g for 10 min and aliquoted and stored at −80° C. until analysis.
Tumor xenografts were excised and flash frozen in liquid nitrogen until analysis. Mouse whole blood was collected by cardiac puncture, and plasma was collected after the sample was centrifuged at 500 g for 10 min and frozen until analysis. For patient samples, whole blood was collected from clinical trial patients (NaHeparin 75 USP units, BD Vacutainer® green top blood collection tube, 4 mL), and plasma was collected after centrifugation at 500 g for 10 min and aliquoted and stored at −80° C. until analysis. […] Briefly, samples were extracted in a buffer containing 90% methanol and 10% water with 250 μM DETAPAC (90:10, v/v), mixed, and incubated on ice for 10 min to precipitate protein. The samples were clarified by centrifugation (16 g, 10 min) with an Eppendorf model 5415D Microfuge. Specifically, samples were diluted at a ratio of 50 μL of plasma to 450 μL extraction buffer. These samples were then further diluted another 77.5 to 105-fold (therefore, 775-1,050 fold overall) in a buffer containing 72% methanol and 28% water with 250 μM DETAPAC (72:28, v/v). […] This protocol ensured that all samples had identical methanol content which is critical for accurate quantification (Vislisel et al., 2007). 100 μL aliquots of the samples or standards were placed in 96-well optical bottom black plates (Thermo Fisher Scientific, Rochester, N.Y., USA). The assay was initiated at room temperature by adding 100 μL of 2.3 mM 4-hydroxy-2,2,6,6-tetramethylpiperidinyloxyl (Tempol) in 2 M sodium acetate trihydrate buffer previously adjusted to pH 5.5 with acetic acid. […] Subsequently, 42 μL of 5.5 mM ortho-phenylenediamine (oPDA) in 2 M sodium acetate buffer (pH 5.5) was added to the samples. Kinetic measurements were immediately initiated and collected every 22 s using a TECAN SpectraFluor Plus plate reader (Tecan, Research Triangle Park, N.C., USA) for the fluorescent condensation product of the reaction of oPDA with DHA (3-dihydroxyethyl)furo[3,4-b]quinoxaline-1-one; λex=345 nm, λem=425 nm). […] Briefly, plasma samples were measured spectrophotometrically (265 nm; ε=13,000 M-1 cm-1) using an Implen Nanophotometer P-330 with a 250× dilution lid, path length=4.00×10-3 cm. The blank for each sample was a pair-‘pre-infusion’ plasma sample, which allowed removal of the background absorbance of plasma proteins and other constituents.
Briefly, mice were anesthetized (17.5 mg ml^−1 ketamine/2.5 mg ml^−1 xylazine mixture), restrained in a stereotaxic frame with an acute head angle, and the dura mater covering the foramen magnum was surgically exposed. CSF was collected by capillary action following minimal puncture of the dura mater and frozen until EPR analysis. Ascorbyl radical EPR spectra were obtained by placing the capillary tube into the bottom of a 250 mm×3 mm (ID) thin walled quartz EPR tube (707-SQ-250M Wilmad-Lab Glass, Vineland, N.J.) centered in a Bruker HS EPR cavity (Bruker, Billerica, Mass.). […]

GBM subjects = assay: Phase I clinical trial of pharmacological ascorbate with radiation and temozolomide in GBM
Protocol: The study was broken into two phases: radiation phase and adjuvant phase. Radiation phase was defined as the time period from day 1 of radiation through adjuvant cycle 1, day 1.
Adjuvant phase was defined as the time period from cycle 1 day 1 through cycle 6 day 28. […] Prescribed doses utilized the same cohorts as the radiation phase. Subjects were dose-escalated after 2 infusions until a plasma level of 20 mM was achieved. […] Temozolomide was prescribed consistent with the Stupp regimen: 150 mg m^−2 for days 1 through 5 of a 28 day cycle. A one-time dose escalation was allowed to 200 mg/m^2 if cycle 1 was tolerated (FIG. 18A).
All subjects agreed to, and participate in, lifelong follow-up for this study. Subject numbers are for convenience and not representative of case ID numbers.
The study was broken into two phases: radiation phase and adjuvant phase. Radiation phase was defined as the time period from day 1 of radiation through adjuvant cycle 1, day 1. […] Cohorts were defined as 15 g, 25 g, 50 g, 62.5 g, 75 g, 87.5 g, 100 g, and 125 g. […] Adjuvant phase was defined as the time period from cycle 1 day 1 through cycle 6 day 28. […] Prescribed doses utilized the same cohorts as the radiation phase. Subjects were dose-escalated after 2 infusions until a plasma level of 20 mM was achieved. […] Temozolomide was prescribed consistent with the Stupp regimen: 150 mg m-2 for days 1 through 5 of a 28 day cycle. A one-time dose escalation was allowed to 200 mg/m2 if cycle 1 was tolerated (FIG. 18A). […] Dose limiting toxicities (DLTs) for the study included grade 4 infection, grade 3 nausea or vomiting despite maximum supportive care, grade 4 neutropenia or thrombocytopenia, and serious adverse events (SAE) with causality to the investigational agent. In addition to DLT, criteria for removal included progressive disease, patient's refusal to continue treatment, and extraordinary medical circumstances (e.g., the constraints of the protocol are considered detrimental to patient health). All subjects agreed to, and participate in, lifelong follow-up for this study. Subject numbers are for convenience and not representative of case ID numbers.

U118 cells = assay: Clonogenic survival assay, U118 GBM cells; assay type: cell-based, human
Protocol: as §1, §2

[2] = 1 h ascorbate + 25 μM temozolomide + 2 Gy IR
[3] = ascorbate alone, increasing concentrations, 1 h
[4] = Example 1: two hours after last radiation treatment, 4 g/kg IP
[5] = Example 4: 1 h after IP ascorbate 4 g kg^−1, H292 xenograft mice
[6] = ascorbate + radiation + temozolomide
[7] = ascorbate + radiation + temozolomide, 11 subjects

## O=C1O[C@H]([C@@H](O)CO)C(O)=C1O [ascorbate, L-ascorbic acid]
U87 cells; [2]
  sensitization to temozolomide + IR (clonogenic survival): selectively sensitized
U87 cells; [3]
  clonogenic survival / cell killing: dose-dependent clonogenic cell killing
OPM2
  ascorbate dose giving complete growth inhibition (colony formation): ≥ 10 pmol/cell
HBEpC
  sensitization to carboplatin + IR (clonogenic survival): not
NHA
  sensitization to temozolomide + IR (clonogenic survival): not
U87 xenografts; ascorbate 4 g kg^−1 IP daily
  tolerability (mouse weight): well tolerated
U87 xenografts; ascorbate 4 g kg^−1 IP daily + 12 Gy IR/2 fractions + weekly 2.5 mg kg^−1 TMZ
  overall survival: significantly increased overall survival
H1299 cells; 1 h ascorbate + 5 μM carboplatin + 2 Gy IR vs Carbo+IR alone
  sensitization to carboplatin + IR (clonogenic survival): significantly increased sensitivity to Carbo+IR; also recorded: selectively sensitized
H1299 cells; ascorbate alone, 1 h exposure
  clonogenic survival / cell killing: more clonogenic cell killing in NSCLC cell lines than chemotherapy plus radiation; also recorded: dose-dependent clonogenic cell killing
Terminal cancer patients
  average increase in survival: 300 days
[1]; [4]
  plasma ascorbate concentration vs non-ascorbate treated mice: significantly higher
  tumor ascorbate concentration vs non-ascorbate treated mice: significantly higher
[1]; [5]
  ascorbate level in plasma: significantly increased ascorbate levels
  ascorbate level in tumor: significantly increased ascorbate levels
[1]; Example 4: 1 h after IP ascorbate 4 g kg^−1, healthy nude mice
  ascorbate level in cerebrospinal fluid (ascorbyl radical EPR): significantly increased ascorbate levels
GBM subjects; 87.5 g infusions
  desired therapeutic blood level (≥20 mM target plasma concentration) reached: achieved in all subjects
GBM subjects; all 13 subjects, 15-125 g/infusion IV
  safety and tolerability: safe and well tolerated
GBM subjects; as of 7/28/15
  patients that completed the radiation phase still living: 10 of 11
GBM subjects; [6]
  OS range: 7.3-29.3 m and 7.3-31.1 m
  PFS range: 3.4-29.3 m and 3.4-31.1 m
  estimated median overall survival (Kaplan-Meier): 28.4 months
  mean progression free survival as of 7/28/15: 14 months
  median OS: 15.5 m
  median PFS: 9.4 m
GBM subjects; [7]
  average overall survival (OS): 18.2 months
  average progression free survival (PFS): 11.9 months
  current median overall survival (OS): 16.5 months
  median progression free survival (PFS): 9.4 months
GBM subjects; in combination with radiation and temozolomide
  adverse events attributed to pharmacological ascorbate: no adverse events attributed to pharmacological ascorbate
GBM subjects; of 11 subjects in longevity analysis
  subjects remaining alive: 7
U118 cells; [2]
  sensitization to temozolomide + IR (clonogenic survival): selectively sensitized
U118 cells; [3]
  clonogenic survival / cell killing: dose-dependent clonogenic cell killing
